Reference: PubChem BioAssay AID248 (DTP/NCI, 2004)
Values joined by “and” are separate entries in the source; they are usually repeats but may differ in a detail not shown here. Equal values may be shown once. Toxic doses and inconclusive results are not listed. No stated cut-off is given here; in the data, active means T/C of 150% or more; inactive means T/C below 125%.

Test system: L1210 leukemia ip in BDF1 mice, survival T/C
Assay: NCI In Vivo Anticancer Drug Screen. Data for tumor model L1210 Leukemia (intraperitoneal) in B6D2F1 (BDF1) mice
Details: endpoint: mean survival time, higher = longer survival
How it was run: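 Transplanted-tumor mice were given test agent; controls received vehicle only. Survival readings from the two groups were divided (treated over control).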

[1] = dose: 100.0 mg/kg/injection, schedule: Q04DX003 (ip), vehicle: Klucel (hydroxypropylcellulose) (HPC)
[2] = dose: 200.0 mg/kg/injection, schedule: Q04DX003 (ip), vehicle: Klucel (hydroxypropylcellulose) (HPC)
[3] = dose: 400.0 mg/kg/injection, schedule: Q04DX003 (ip), vehicle: Klucel (hydroxypropylcellulose) (HPC)
[4] = dose: 100.0 mg/kg/injection, schedule: Q01DX009 (ip), vehicle: saline
[5] = dose: 100.0 mg/kg/injection, schedule: Q04DX003 (ip), vehicle: saline
[6] = dose: 200.0 mg/kg/injection, schedule: Q01DX009 (ip), vehicle: saline
[7] = dose: 200.0 mg/kg/injection, schedule: Q04DX003 (ip), vehicle: saline
[8] = dose: 400.0 mg/kg/injection, schedule: Q01DX009 (ip), vehicle: saline
[9] = dose: 50.0 mg/kg/injection, schedule: Q01DX009 (ip), vehicle: saline
[10] = dose: 100.0 mg/kg/injection, schedule: Q01DX001 (ip), vehicle: saline
[11] = dose: 200.0 mg/kg/injection, schedule: Q01DX001 (ip), vehicle: saline
[12] = dose: 400.0 mg/kg/injection, schedule: Q01DX001 (ip), vehicle: saline
[13] = dose: 100.0 mg/kg/injection, schedule: Q01DX009 (ip), vehicle: Klucel (hydroxypropylcellulose) (HPC)
[14] = dose: 200.0 mg/kg/injection, schedule: Q01DX009 (ip), vehicle: Klucel (hydroxypropylcellulose) (HPC)

Measured: T/C

CC(C)C1CC(C)(C)c2cc3c(cc2O1)C(C)(C)CC(C(C)C)O3 (stereo not given)
inactive: [1] 91 % of control | [2] 106 % of control | [3] 96 % of control

CC1(C)c2ccccc2C(=O)C1Cc1ccccc1 (stereo not given)
inactive: [4] 102 % of control | [5] 107 % of control | [6] 101 % of control | [7] 104 % of control | [8] 98 % of control | dose: 400.0 mg/kg/injection, schedule: Q04DX003 (ip), vehicle: saline 96 % of control

C/C(=C\c1ccc2ccccc2c1)[N+](=O)[O-]
inactive: dose: 75.0 mg/kg/injection, schedule: Q01DX001 (ip), vehicle: saline 108 % of control | dose: 150.0 mg/kg/injection, schedule: Q01DX001 (ip), vehicle: saline 100 % of control | dose: 300.0 mg/kg/injection, schedule: Q01DX001 (ip), vehicle: saline 105 % of control

O=[N+]([O-])c1c(Cl)sc(Cl)c1[N+](=O)[O-]
inactive: dose: 3.13 mg/kg/injection, schedule: Q01DX009 (ip), vehicle: saline sonified 98 % of control | dose: 6.25 mg/kg/injection, schedule: Q01DX009 (ip), vehicle: saline sonified 100 % of control | dose: 6.25 mg/kg/injection, schedule: Q04DX003 (ip), vehicle: Klucel (hydroxypropylcellulose) (HPC) 86 % of control | dose: 12.5 mg/kg/injection, schedule: Q01DX009 (ip), vehicle: saline sonified 101 % of control | dose: 12.5 mg/kg/injection, schedule: Q04DX003 (ip), vehicle: Klucel (hydroxypropylcellulose) (HPC) 86 % of control

NC(=O)c1cn[nH]c1N1CC[N+](CCCl)=N1
inactive: [9] 93 % of control | [4] 103 % of control | [5] 103 % of control | [6] 108 % of control | [7] 97 % of control

CC(C)(C)C(O)(C(=O)O)C(C)(C)C
inactive: dose: 50.0 mg/kg/injection, schedule: Q01DX001 (ip), vehicle: saline 110 % of control | [10] 98 % of control | [11] 104 % of control | [12] 100 % of control

CC(SS(=O)(=O)O)C(N)=NCc1ccccc1 (stereo not given)
inactive: dose: 25.0 mg/kg/injection, schedule: Q04DX002 (ip), vehicle: Klucel (hydroxypropylcellulose) (HPC) 94 % of control | dose: 50.0 mg/kg/injection, schedule: Q04DX002 (ip), vehicle: Klucel (hydroxypropylcellulose) (HPC) 108 % of control | dose: 100.0 mg/kg/injection, schedule: Q04DX002 (ip), vehicle: Klucel (hydroxypropylcellulose) (HPC) 98 % of control

Oc1ccc(N=Cc2ccccc2)cc1
inactive: dose: 100.0 mg/kg/injection, schedule: Q04DX002 (ip), vehicle: gum acacia 98 % of control | dose: 200.0 mg/kg/injection, schedule: Q04DX002 (ip), vehicle: gum acacia 109 % of control | dose: 400.0 mg/kg/injection, schedule: Q04DX002 (ip), vehicle: gum acacia 106 % of control

CCOC(=O)c1ccc(NCc2nnc3nc(N)nc(SCc4ccccc4)c3n2)cc1
inactive: dose: 100.0 mg/kg/injection, schedule: Q01DX001 (ip), vehicle: saline with Tween-80 96 % of control | dose: 200.0 mg/kg/injection, schedule: Q01DX001 (ip), vehicle: saline with Tween-80 98 % of control | dose: 400.0 mg/kg/injection, schedule: Q01DX001 (ip), vehicle: saline with Tween-80 92 % of control

Cc1ccc(NC(=O)Oc2cc(=O)oc3ccccc23)c([N+](=O)[O-])c1
inactive: [1] 89 % of control | [2] 94 % of control | [3] 96 % of control

COc1ccc(/C=C/C(=N\O)c2ccc(OC)c(OC)c2)cc1OC
inactive: dose: 25.0 mg/kg/injection, schedule: Q01DX009 (ip), vehicle: saline 86 % of control | [9] 98 % of control | [4] 98 % of control | [6] 100 % of control | [8] 98 % of control

ClC(Cl)=[C](Cl)[Hg][C](Cl)=C(Cl)Cl
inactive: dose: 0.39 mg/kg/injection, schedule: Q01DX009 (ip), vehicle: saline with Tween-80 96 % of control | dose: 0.78 mg/kg/injection, schedule: Q01DX009 (ip), vehicle: saline with Tween-80 97 % of control | dose: 1.56 mg/kg/injection, schedule: Q01DX009 (ip), vehicle: saline with Tween-80 93 % of control and 86 % of control

O=C1CCN(S(=O)(=O)c2ccccc2)c2ccccc21
inactive: [10] 94 % of control | [11] 94 % of control | [12] 92 % of control

CC1(C)c2ccccc2C(C)(C(Cl)(Cl)Cl)c2ccc(Cl)cc21 (stereo not given)
inactive: dose: 50.0 mg/kg/injection, schedule: Q01DX001 (ip), vehicle: carboxymethylcellulose (CMC) 98 % of control | dose: 100.0 mg/kg/injection, schedule: Q01DX001 (ip), vehicle: carboxymethylcellulose (CMC) 90 % of control | [4] 92 % of control | dose: 200.0 mg/kg/injection, schedule: Q01DX001 (ip), vehicle: carboxymethylcellulose (CMC) 93 % of control | [6] 95 % of control | dose: 400.0 mg/kg/injection, schedule: Q01DX001 (ip), vehicle: carboxymethylcellulose (CMC) 95 % of control | [8] 97 % of control

NC(=O)c1nccnc1C(N)=O
inactive: [1] 101 % of control | dose: 100.0 mg/kg/injection, schedule: Q04DX003 (ip), vehicle: saline with Tween-80 96 % of control | [2] 101 % of control | dose: 200.0 mg/kg/injection, schedule: Q04DX003 (ip), vehicle: saline with Tween-80 96 % of control | [3] 93 % of control | dose: 400.0 mg/kg/injection, schedule: Q04DX003 (ip), vehicle: saline with Tween-80 96 % of control

Cc1cc(Cl)c(Cl)cc1NC(=O)Nc1cccc(F)c1
inactive: dose: 100.0 mg/kg/injection, schedule: Q01DX009 (ip), vehicle: saline with Tween-80 94 % of control | dose: 200.0 mg/kg/injection, schedule: Q01DX009 (ip), vehicle: saline with Tween-80 100 % of control | dose: 400.0 mg/kg/injection, schedule: Q01DX009 (ip), vehicle: saline with Tween-80 94 % of control

CC(=O)N(N=Nc1ccccc1)c1cccc2ccccc12
inactive: [13] 116 % of control | [1] 108 % of control | [14] 96 % of control | [2] 109 % of control | [3] 108 % of control

CC(=O)NNC(=O)c1cnccn1
inactive: dose: 6.25 mg/kg/injection, schedule: Q04DX003 (ip), vehicle: saline 100 % of control | dose: 12.5 mg/kg/injection, schedule: Q04DX003 (ip), vehicle: saline 97 % of control | dose: 24.0 mg/kg/injection, schedule: Q04DX003 (ip), vehicle: saline 97 % of control | dose: 25.0 mg/kg/injection, schedule: Q01DX009 (ip), vehicle: water 95 % of control and 98 % of control | dose: 48.0 mg/kg/injection, schedule: Q04DX003 (ip), vehicle: saline 102 % of control | dose: 50.0 mg/kg/injection, schedule: Q01DX009 (ip), vehicle: water 97 % of control and 102 % of control | dose: 100.0 mg/kg/injection, schedule: Q01DX009 (ip), vehicle: water 112 % of control and 123 % of control | dose: 200.0 mg/kg/injection, schedule: Q01DX001 (ip), vehicle: water 103 % of control | dose: 200.0 mg/kg/injection, schedule: Q01DX009 (ip), vehicle: water 116 % of control and 118 % of control

Cc1c(NC(=O)CCl)c(=O)n(-c2ccccc2)n1C
inactive: [13] 98 % of control | [1] 100 % of control | [14] 94 % of control | [2] 96 % of control | [3] 95 % of control

C=C(CCCCC)C(=O)/C=C/c1ccc(Cl)cc1
inactive: dose: 50.0 mg/kg/injection, schedule: Q01DX009 (ip), vehicle: Klucel (hydroxypropylcellulose) (HPC) 103 % of control | [13] 97 % of control | [1] 102 % of control | [14] 95 % of control | [2] 100 % of control | [3] 103 % of control
